What all share (assay type): cell-based, human
In data set [1] the test system is caspase 3. The data set is described as follows: Caspase 3 colorimetric assay in HeLa cells. The conditions noted are these: 0.5 μM, 24 h. The procedure: (§1) Possible activation of caspase 3, -6 and -8 was investigated by means of caspase 3, caspase 6 and FLICE/caspase 8 colorimetric kits, respectively. Cells (1,000,000) were seeded with an overnight attachment policy. After 24 h of exposure to 0.5 μM of the sulphamoylated 2ME2 analogues, cells were detached with trypsin and centrifuged at 13,000× g. Cells (500,000) were resuspended in 50 µl of chilled cell lysis buffer and incubated on ice for 10 min. Cells were centrifuged at 10,000×g for a min. Supernatant was transferred to a fresh tube and put on ice. After determination of the protein concentration using the bicinchoninic acid (BCA) protein assay (Thermo Fisher Scientific, Johannesburg, South Africa), 100 µg protein/50 µl cell lysis buffer was mixed with 50 µl 2X reaction buffer (containing 10 mM Dithiothreitol (DTT)). Ac-Asp-Glu-Val-Asp-p-nitroanilide (Ac-DEVD-pNA) (5 µl of 4 mM) (caspase-3-specific substrate), or 5 µl 4 mM […] (Ac-VEID-pNA) (caspase-6-specific substrate), or 5 µl 4 mM Ac-Ile-Glu-Thr-Asp-p-nitroanilide (Ac-IETD-pNA) (caspase-8-specific substrate) was added and the mixture was incubated at 37°C for 120 min (200 µM final concentration). Absorbance was determined at 405 nm on the ELx800 Universal Microplate Reader available from Bio-Tek Instruments Inc. (Vermont, United States of America).

For data set [2], the system named is caspase-6. Briefly: Caspase 6 colorimetric assay. The conditions noted are these: 0.5 μM, 24 h. Here is the method: as §1
Data set [3] concerns HeLa cells. Briefly: Cell morphology by transmission electron microscopy. The conditions noted are these: 24 h; for cell shrinkage (TEM): compared to vehicle-treated cells. The procedure: The in vitro influence of ESE-15-one, EMBS and ESE-16 on cell morphology was determined after exposure for 24 h using transmission electron microscopy (TEM). […] After each fixation step the samples were rinsed 3 times in 0.0075 M sodium phosphate buffer (pH 7.4). Samples were dehydrated using increasing concentrations of ethanol (30%, 50%, 70%, 90%, and 3×100%) and embedded in Quetol resin, sectioned with a microtome and placed on copper discs. Sections were contrasted with 4% aqueous uranyl acetate and Reynolds' lead citrate and viewed with a JOEL JEM 2100F transmission electron microscope (Electron Microscopy Unit, University of Pretoria, South Africa).

Data set [4] relates to HeLa cells. The data set is described as follows: Cytotoxicity: lactate dehydrogenase assay. The conditions noted are these: 24 h, compared to vehicle-treated cells. The procedure:
Lactate dehydrogenase (LDH) is a soluble cytosolic enzyme that catalyzes the interconversion of lactate and pyruvate. Cells release LDH during injury or cell damage, following the loss of membrane integrity consequential from either apoptosis or necrosis. LDH activity can therefore be used as an indicator of cell membrane integrity and serves as a general mean to assess for cytotoxicity resulting from exposure to chemical compounds. Cells were seeded in 96 well plates at a cell density of 5,000 cells per well (incubated at 37°C at 5% CO2). After 24 h, cells were exposed to 0.1–25 μM sulphamoylated 2ME2 analogues including vehicle-treated controls and incubated for 24 h at 37°C. Subsequently, the 200 μl medium was transferred and centrifuged at 5,000 rpm for 10 min. Supernatant (10 μl) was then transferred to an optimally clear 96 well plate. LDH reaction mix (100 μl mixed according to the supplier's manual instructions) was added to the medium. After 90 min incubation at room temperature, the absorbance was read at 460 nm (reference wavelength of 630 nm) with an ELx800 Universal Microplate Reader from Bio-Tek Instruments Inc. (Vermont, United States of America).

For data set [5], the system named is HeLa cells. The data set is described as follows: Mitochondrial membrane potential assay (Mitocapture, flow cytometry). The settings on record: 0.5 μM analogues (2-methoxyestradiol-bis-sulphamate 0.55 μM), 24 h. The procedure: Cells (500,000) were seeded with an overnight attachment policy. After 24 h of exposure to 0.5 μM of the sulphamoylated 2ME2 analogues, cells were detached using trypsin and centrifuged at 13,000×g.

For data set [6], the system named is caspase 3. Briefly: Caspase 3 colorimetric assay in MDA-MB-231 cells. The conditions noted are these: MDA-MB-231, 0.5 μM, 24 h. Here is the method:
as §1

This note sets out measurements from paper PMC3764137, “Sulphamoylated 2-Methoxyestradiol Analogues Induce Apoptosis in Adenocarcinoma Cell Lines” (PLoS ONE, 2013).

SMILES strings stand for the structures.

Consider `CCc1cc2c(cc1OS(N)(=O)=O)CC[C@@H]1C2CC[C@]2(C)[C@@H](OS(N)(=O)=O)CC[C@@H]12` (stereo partly drawn) [EMBS, (8R, 13S, 14S, 17S)-2-ethyl-13-methyl-7,8,9, 11, 12,13, 14, 15, 16, 17-decahydro-6H-cyclopenta [a] phenanthrane-3, 17-diyl bis (sulphamate)], for which the “caspase 3 activity compared to vehicle-treated cells” value in data set [1] is listed as “more than doubled”. For the same molecule, in data set [2], the “caspase-6 activity ratio compared to vehicle-treated cells” value turned out to be 3.1. Besides, in data set [3], the “cell debris (TEM)” value is on record as “Cell debris was observed”, the “vacuoles (TEM)” value was “vacuoles” and the “cell shrinkage (TEM)” value is given as “shrunken”. Moreover, the “LDH levels / LDH release” value in data set [4] is given as “No statistically significant increase in LDH levels”.

As for `CCc1cc2c(cc1OS(N)(=O)=O)CC[C@@H]1[C@@H]2CC[C@]2(C)C(=O)C=C[C@@H]12` [ESE-15-one, 2-Ethyl-3-O-sulphamoyl-estra-1,3,5 (10) 15-tetraene-3-ol-17one], the “cells with reduced mitochondrial potential” value in data set [5] came to 72%. For the same molecule, the “caspase 3 activity” value in data set [6] is “most affected”. For the same molecule, in data set [1], the “caspase 3 activity compared to vehicle-treated cells” value is “more than doubled”. Moreover, in data set [3], the “apoptotic bodies (TEM)” value was “Apoptotic bodies were observed”, the “vacuoles (TEM)” value is reported as “vacuoles” and the “cell shrinkage (TEM)” value is given as “shrunken”. Besides, the “LDH levels / LDH release” value in data set [4] was “No statistically significant increase in LDH levels”.
